Tests used:
A549 cells = test: Antiproliferation WST-1 assay, A549; type: cell-based, human; details: WST-1 assay; A549 carcinomic human alveolar basal epithelial cell; read-out: Cellular IC50, A549
Description: WST-1 is better than MTT for analyzing cell proliferation, because it can be reduced to soluble formazan by dehydrogenase in mitochondria and has little toxicity to cells. Cell proliferation was determined using WST-1 dye (Beyotime Inst Biotech, China) according to manufacture’s instructions. Brieﬂy, 5 × 10^3 cells per well were seeded in a 96-well plate, grown at 37 ℃ for 24 h, and then placed in serum-starved conditions for a further 6 h. Subsequently, cells were treated with compounds (Table 1) at increasing concentrations in the presence of 10% FBS for 24 or 48h. After 10 µL WST-1 dye was added to each well, cells were incubated at 37 ℃ for 2 h and the absorbance was ﬁnally determined at 450 nm using a microplate reader.

human HER2 = target: T1, human HER2 (Homo sapiens, UniProt P04626); test: HER2 kinase assay ([γ-32P] ATP, poly-Glu-Tyr); type: biochemical; details: phosphorylation of poly-Glu-Tyr copolymer; mean, >1 determination; read-out: Enzyme activity IC50 against HER2 kinase
T1 construct: The cytoplasmic domain (amino acids 676-1255) of human HER2; FLAG (DYKDDDD) (N); made in house
Description: The expressed HER2 kinase and EGFR kinase were purified by anti-FLAG M2 affinity gel (Sigma-Aldrich, USA). The HER2 and EGFR kinase assays were performed using radiolabeled [γ-^32P] ATP (GEHealthcare, USA) in 96-well plates. The kinase reactions were performed in 50 mmol/L Tris-HCl, pH7.5, 5 mmol/L MnCl2, 0.01% Tween-20 and 2 mmol/L DTT containing 0.9 μCi of [γ-^32P] ATP per reaction, 50 μmol/L ATP, 5 μg/mL poly-Glu-Tyr (4:1) and 0.25 μg/mL of purified Her2 or EGFR cytoplasmic domain in a total volume of 50 μL. […] Kinase reactions were initiated by adding ATP. After the kinase reaction incubated for 10 minutes at room temperature, reactions were terminated by the addition of 10% (final concentration) trichloroacetic acid. The [γ-^32P]-phosphorylated proteins were filtered in a harvest plate (Millipore, USA) with a cell harvester (PerkinElmer, USA) and washed free of [γ-^32P] ATP with 3% phosphoric acid. The plates were dried, followed by the addition of 25 μL of MicroScintO (PerkinElmer, USA). Radioactivity was counted by a Topcount scintillation counter (PerkinElmer, USA).

Aurora A = target: T2, Aurora A (Homo sapiens, UniProt O14965); test: Serine/threonine kinase profiling ([γ-32P] ATP), Aurora A; type: biochemical; details: ATP concentration = Km
T2 construct: 6xHis (N); made in house; host or cells: baculovirus expression system
T2 sequence (O14965 1-403): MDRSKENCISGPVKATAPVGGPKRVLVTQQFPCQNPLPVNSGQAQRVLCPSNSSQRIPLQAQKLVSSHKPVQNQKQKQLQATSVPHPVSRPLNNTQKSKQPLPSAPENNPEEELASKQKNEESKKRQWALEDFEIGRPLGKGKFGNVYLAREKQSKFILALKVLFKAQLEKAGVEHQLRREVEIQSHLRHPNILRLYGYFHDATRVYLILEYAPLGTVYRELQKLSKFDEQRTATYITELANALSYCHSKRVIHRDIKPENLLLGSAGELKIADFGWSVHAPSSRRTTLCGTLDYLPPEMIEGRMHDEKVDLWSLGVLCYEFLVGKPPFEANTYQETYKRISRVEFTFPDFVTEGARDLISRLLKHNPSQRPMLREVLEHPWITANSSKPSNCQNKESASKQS
Description: Assays for 4 serine/threonine kinases using radio labeled [γ-^32P] ATP (GE Healthcare, Piscataway, NJ) were performed in 96 well plates. Mitogen-activated protein kinase p38α (p38α), was expressed as N-terminal FLAG-tagged protein using a baculovirus expression system. Aurora-A and -B were expressed as N-terminal 6xHis tagged protein using a baculovirus expression system. CDK2/CycA was expressed as C-terminal 6His-tagged CDK2, and N-terminal GST-tagged Cyclin A protein using a baculovirus expression system.
The reaction conditions were optimized for each kinase: p38α (100 ng/well of enzyme, 1 μg/well of MBP (Wako Pure Chemical Ind., Osaka, Japan), 0.1 μCi/well of [γ-^32P] ATP, 60 min reaction at 30 ℃); Aurora-A and -B (50 ng/well of enzyme, 30 μM of Aurora substrate peptide, 0.2 μCi/well of [γ-^32P] ATP, 60 min reaction at room temperature); CDK2/CycA (1.8 mUnits/well of enzyme, 1 μg/well of Histone H1 (Calbiochem), 0.2 μCi/well of [γ-^32P] ATP, 20 min reaction at room temperature).
All the four enzyme reactions were performed in 25 mM HEPES, pH 7.5, 10 mM magnesium acetate, 1 mM dithiothreitol and 0.5 μM ATP containing optimized concentration of enzyme, substrate and radiolabeled ATP as described above in a total volume of 50 μl. […] The radioactivity was counted by a TopCount scintillation counter (PerkinElmer).

T1 sequence (P04626 676-1255): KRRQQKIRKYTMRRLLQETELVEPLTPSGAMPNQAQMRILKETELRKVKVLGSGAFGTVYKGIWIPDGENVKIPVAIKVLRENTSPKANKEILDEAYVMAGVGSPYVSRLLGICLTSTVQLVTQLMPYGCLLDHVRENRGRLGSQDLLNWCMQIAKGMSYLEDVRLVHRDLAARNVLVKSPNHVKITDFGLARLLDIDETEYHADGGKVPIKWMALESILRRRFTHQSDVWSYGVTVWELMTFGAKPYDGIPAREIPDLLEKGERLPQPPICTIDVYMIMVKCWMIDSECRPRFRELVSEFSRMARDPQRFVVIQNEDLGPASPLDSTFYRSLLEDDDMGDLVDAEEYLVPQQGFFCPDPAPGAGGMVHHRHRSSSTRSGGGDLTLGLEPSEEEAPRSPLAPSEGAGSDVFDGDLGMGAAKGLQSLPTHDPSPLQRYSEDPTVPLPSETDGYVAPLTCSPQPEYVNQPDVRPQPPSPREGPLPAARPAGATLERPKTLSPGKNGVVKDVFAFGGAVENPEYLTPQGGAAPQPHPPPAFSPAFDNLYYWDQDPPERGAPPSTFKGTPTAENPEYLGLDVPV

`O=C(Nc1ccc2ncnc(Nc3cccc(Br)c3)c2c1)c1ccc(C(F)(F)F)cc1O` [Compound 21, N-(4-(3-bromophenylamino)quinazolin-6-yl)-2-hydroxy-4-(trifluoromethyl)benzamide] was tested. Which IC50 (A549 cells) did it give?
Its IC50 is 1.64 ± 0.027 µM.

What about the IC50 (human HER2) of the same compound?
Its IC50 is 0.096 ± 0.004 µM.

And the IC50 (Aurora A)?
The IC50 was 58.4 ± 0.78 µM.

Reference: article PMC3731256, “Optimization of Substituted 6-Salicyl-4-Anilinoquinazoline Derivatives as Dual EGFR/HER2 Tyrosine Kinase Inhibitors” (PLoS ONE, 2013)
